This note sets out measurements from PubChem BioAssay (NCI).

Each structure is given as a SMILES string.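 How tested: cells in 96-well plates exposed to compound for 48 hours at five concentrations. TGI denotes the concentration required for complete inhibition of growth.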 Where only a bound is given, the exact number is not on record here.

Some test systems named below: HCT-116 colon; OVCAR-4 ovarian; ACHN renal; RPMI-8226 leukemia; UO-31 renal; MDA-N; U251 CNS; MCF7 breast; NCI-H226 lung; SK-MEL-2 melanoma; NCI-H522 lung.
Assay in all cases: NCI-60 cell line screen, 48 h

Turning to `COC(=O)c1cc(C#N)[nH]c1-c1cc(Br)cs1`, the TGI is 28.3 µM in the assay on HCT-116 colon; above 57.7 µM in the assay on OVCAR-4 ovarian; 61.9 µM with ACHN renal; 51.2 µM with RPMI-8226 leukemia; 29.5 µM with UO-31 renal; 29.4 µM in the assay with MDA-N. Moreover, the TGI in the assay on U251 CNS turned out to be 32.1 µM; in the assay on MCF7 breast it was 33.7 µM; in the assay on NCI-H226 lung it was 49.4 µM; in the assay with SK-MEL-2 melanoma, 35.2 µM; in the assay with NCI-H522 lung, 13.3 µM.

Regarding `Nc1nn2c(=O)c3ccccc3nc2s1`, the TGI in the assay with HCT-116 colon, in the assay with OVCAR-4 ovarian, with ACHN renal, in the assay on RPMI-8226 leukemia, in the assay with UO-31 renal and with MDA-N was above 100 µM in each case. In addition, the TGI with U251 CNS was above 100 µM; with MCF7 breast it was above 100 µM; with NCI-H226 lung, 91.1 µM; in the assay with SK-MEL-2 melanoma, above 100 µM; in the assay on NCI-H522 lung it was 50.3 µM.

Turning to `N#Cc1nc(C2CCC2)oc1N`, the TGI in the assay on HCT-116 colon, with OVCAR-4 ovarian, in the assay with ACHN renal, in the assay with RPMI-8226 leukemia, in the assay on UO-31 renal and in the assay with MDA-N was above 100 µM each time. The TGI in the assay on U251 CNS, in the assay on MCF7 breast, with NCI-H226 lung, in the assay on SK-MEL-2 melanoma and with NCI-H522 lung was above 100 µM in each case.

For the compound `O=C1c2ccccc2NC(=S)[C@@H]2CCCN12`, the TGI in the assay with HCT-116 colon, with OVCAR-4 ovarian, in the assay with ACHN renal, in the assay with RPMI-8226 leukemia, in the assay on UO-31 renal and with MDA-N was above 100 µM each time. Besides, the TGI in the assay with U251 CNS, in the assay with MCF7 breast, in the assay on NCI-H226 lung, with SK-MEL-2 melanoma and in the assay with NCI-H522 lung was above 100 µM each time.

For `COc1c(O)c2c(=O)cc(OC)c3c4c(OC)cc(=O)c5c(O)c(OC)c6c(c(c1C(C(C)O)C6C(C)O)c23)c54` (stereo not given), the TGI is 6.18 µM in the assay with HCT-116 colon; 4.96 µM in the assay with OVCAR-4 ovarian; 2.93 µM in the assay with ACHN renal; 4.8 µM in the assay with RPMI-8226 leukemia; 2.3 µM in the assay on UO-31 renal; 3.96 µM in the assay with MDA-N. Besides, the TGI in the assay on U251 CNS amounted to 11.3 µM; in the assay on MCF7 breast, 4.04 µM; in the assay on NCI-H226 lung, 5.46 µM; in the assay on SK-MEL-2 melanoma it was 3.73 µM; in the assay with NCI-H522 lung, 3.82 µM.

With `CN(C)CC1CCC(CN(C)C)C1=O` (stereo not given), the TGI came to 5.23 µM in the assay on HCT-116 colon; 15.8 µM in the assay with OVCAR-4 ovarian; 11.1 µM in the assay with ACHN renal; 3.33 µM in the assay with RPMI-8226 leukemia; 14 µM in the assay with UO-31 renal; 3.85 µM in the assay with MDA-N. Moreover, the TGI with U251 CNS stood at 50.2 µM; in the assay on MCF7 breast, 1.8 µM; in the assay with NCI-H226 lung, 38.8 µM; in the assay on SK-MEL-2 melanoma, 21.6 µM; with NCI-H522 lung it was 0.359 µM.

Turning to `COc1cc2c(cc1OC)-c1cc3ccccc3c(=O)n1CC2`, the TGI was 33.9 µM in the assay with HCT-116 colon; above 100 µM in the assay with OVCAR-4 ovarian; above 100 µM in the assay on ACHN renal; 35 µM with RPMI-8226 leukemia; above 100 µM in the assay on UO-31 renal; above 100 µM in the assay with MDA-N. The TGI is 97.9 µM with U251 CNS; above 100 µM with MCF7 breast; above 100 µM in the assay with NCI-H226 lung; 48.8 µM with SK-MEL-2 melanoma; 40 µM with NCI-H522 lung.

Turning to `CCOC(=O)/C=C(\C(=O)OCC)n1ccc(=O)n(Cc2cn(COCCOC(C)=O)nn2)c1=O`, the TGI with HCT-116 colon is 33 µM; in the assay on OVCAR-4 ovarian, 38.3 µM; in the assay with ACHN renal it was 17.3 µM; with RPMI-8226 leukemia, 55.6 µM; in the assay with UO-31 renal it was 34.1 µM; in the assay on MDA-N, above 100 µM. In addition, the TGI in the assay on U251 CNS was 36.7 µM; with MCF7 breast, 35.1 µM; with NCI-H226 lung, 29.7 µM; in the assay with SK-MEL-2 melanoma, 47.7 µM; with NCI-H522 lung, 8.34 µM.

As to `CC12CCCC3(CC(=O)C(C)(C)C3C(=O)C1)C2` (stereo not given), the TGI with HCT-116 colon, with OVCAR-4 ovarian, with ACHN renal, in the assay with RPMI-8226 leukemia, in the assay on UO-31 renal and with MDA-N was above 100 µM in each case. In addition, the TGI in the assay with U251 CNS, in the assay with MCF7 breast, with NCI-H226 lung, in the assay with SK-MEL-2 melanoma and in the assay on NCI-H522 lung was above 100 µM throughout.

Turning to `O=C1NCN(c2ccccc2)C12CCN(CCCN1CCN(CCOC(c3ccc(F)cc3)c3ccc(F)cc3)CC1)CC2`, the TGI in the assay on HCT-116 colon came out at 3.32 µM; in the assay with OVCAR-4 ovarian it was 9.58 µM; in the assay on ACHN renal, 3.85 µM; in the assay on RPMI-8226 leukemia it was 4.95 µM; with UO-31 renal, 3.25 µM; with MDA-N it was 3.65 µM. Also, the TGI was found to be 3.45 µM in the assay on U251 CNS; 3.99 µM with MCF7 breast; 3.84 µM in the assay with NCI-H226 lung; 3.71 µM in the assay with SK-MEL-2 melanoma; 3.69 µM in the assay on NCI-H522 lung.
